Test results as given in patent US20030055103A1, “Utilization of achyrocline satureoides ("Marcela") extracts and liposomal preparations of natural and semi-synthetic flavonoids for the prevention and treatment of the consequences of stroke and neurodegenerative diseases” (priority 2001, published 2003).
“Also recorded” adds a separate entry of the source. Read-outs that look alike come from different tables or passages of the source. Peptide text beside a SMILES is read from it.

How the values were obtained:
PC12 cells = test: PC12 cell survival after H2O2 oxidative insult (MTT reduction); type: cell-based; settings: 200 μM H2O2 30 min, result in words
Procedure: PC12 cells (Greene and Tischler 1976, Shafer and Atchison 1991) were grown in RPMI supplemented with 10% heat-inactivated horse serum (HSI), 5% fetal bovine serum (FBS), penicillin and streptomycin on a collagen matrix. Typically, cells were sow (1:4 in a total volume of 10 ml complete medium) in 100×20 mm cell culture dishes and grown at 37° C. in at atmosphere of 5% CO2 for a week. Media was changed twice a week. Cultures were not used in more than 25 passages.
Cells were plated at a low density (100 cells/μl) in 200 μl of complete medium on 96-well cell culture plates on a poli-D-lysine matrix to do all the experiments except the comet assay. To do the latter, 100×20mm-cell culture dishes were adequate. All the experiments were started 24 hrs after the sow.
Cells were exposed to H2O2 200 μM during half an hour (medium was changed to stop the treatment) and all the evaluations were fulfilled 2 hrs later.
This assay measures the reduction of 3-(4,5-dimethyl-thiazol-2-yl)-2,5-diphenil tetrazolium bromide (MTT) (yellowish) to formazan (blue) by mitochondrial dehydrogenases of the living cells. The fresh complete medium added after the treatment was supplemented with MTT (0.5 mg/ml ). Following an incubation period of 2 hrs, it was removed and half-its volume of dimethylsulfoxide (DMSO) was added to achieve solubilization. Absorption values were read immediately at 570-640 nm (Denizot and Lang 1986). […]

[1] = tested on: spontaneous lipoperoxidation of rat's brain membranes; test: Spontaneous lipoperoxidation of rat brain membranes (malondialdehyde production); type: biochemical; settings: for antioxidant potency / capacity: anti-lipoperoxidation assay (test not given)
[2] = tested on: rats injected with 6-OHDA in the SN; test: 6-OHDA lesion of the Substantia Nigra (experimental parkinsonism), striatal dopamine; type: in vivo, rat; settings: given intraperitoneally before 6-OHDA, assessed eight days after, result in words
[3] = Acute toxicity (species not given); settings: intraperitoneal or oral, doses up to 300 mg/kg
male Sprague-Dawley rats = test: Permanent focal MCA occlusion, TTC morphometry and histology; type: in vivo, rat; settings: result in words
[4] = Quercetin concentration in rat blood after intraperitoneal administration; type: in vivo
From the text: FIG. 17. A graph of Quercetin concentration in rat blood at different periods after intraperitoneal administration.

[5] = inhibition of spontaneous lipoperoxidation, rat brain membranes, read-out: IC50

IC50 [1, 5] [µM] | SMILES | protection / cell survival after H2O2 insult (PC12 cells) | neuroprotection: dopamine level in ipsilateral striatum [2] | also measured
– | Cc1c(C)c2c(c(C)c1O)CCC(C)(C(=O)O)O2 (stereo not drawn) [trolox] | only marcela extracts, quercetin or structurally similar flavonoids protected PC12 cells | – | –
– | O=c1c(O)c(-c2ccc(O)c(O)c2)oc2cc(O)ccc12 [fisetin] | did show neuroprotectant capacity | – | –
– | CC(=O)N[C@@H](CC(C)C)C(=O)N[C@@H](CCC(=O)O)C(=O)N[C@@H](Cc1c[nH]cn1)C(=O)N[C@H](C=O)CC(=O)O [LEHD, acetyl-L-leucyl-L-glutamyl-L-histidyl-L-aspart-1-al] (Ac-LEHD-aldehyde) | block H2O2-induced cell death | – | –
– | Cn1cnc(N)c2ncnc1-2 [3-MT, 3-methyladenine] | block H2O2-induced cell death | – | –
– | Cc1c(C)c2c(c(C)c1O)CC[C@@](C)(CCC[C@H](C)CCC[C@H](C)CCCC(C)C)O2 [vitamin E, alpha-tocopherol] | only marcela extracts, quercetin or structurally similar flavonoids protected PC12 cells | – | protection / cell survival after H2O2 insult (PC12 cells; listed as alpha-tocopherol): did not increased survival
48.6 | O=C(O)/C=C/c1ccc(O)c(O)c1 [Caffeic acid] | – | – | –
– | CN1CCCC1c1cccnc1 (stereo not drawn) [Nicotine] | – | reverted dopamine levels in the ipsilateral striatum | antioxidant potency / capacity ([1]; result in words): negligible
– | O=c1c(O)c(-c2cc(O)c(O)c(O)c2)oc2cc(O)cc(O)c12 [myricetin] | did show neuroprotectant capacity | – | –
1400 | COc1ccc2[nH]cc(CCNC(C)=O)c2c1 [Melatonine] | did not increased survival | weaker in its neuroprotection | –
28.3 | Oc1cc(O)c2c(c1)OC(c1ccc(O)c(O)c1)C(O)C2 (stereo not drawn) [Catequin] | – | – | –
– | CC[C@H](C)[C@H](NC(=O)[C@H](CCC(=O)O)NC(=O)[C@@H](NC(C)=O)C(C)C)C(=O)N[C@H](C=O)CC(=O)O [VEID, acetyl-L-valyl-L-glutamyl-L-isoleucyl-L-aspart-1-al] (Ac-VEID-aldehyde) | block H2O2-induced cell death | – | –

SMILES | IC50 [1, 5] [µM] | protection / cell survival after H2O2 insult (PC12 cells) | neuroprotection: dopamine level in ipsilateral striatum [2] | also measured
COc1cc2c(cc1O)C[C@H]1c3c(cc(O)c(OC)c3-2)CCN1C [Boldine] | 12.8 | only marcela extracts, quercetin or structurally similar flavonoids protected PC12 cells; also recorded: did not increased survival | did not revert in vivo the oxidative lesion; also recorded: did not show neuroprotection activity | antioxidant potency / capacity ([1]; result in words): highest antioxidant potency
O=c1c(O)c(-c2ccc(O)c(O)c2)oc2cc(O)cc(O)c12 [Quercetin] | 3.7 | protected PC12 cells; also recorded: protects PC12 cells against H2O2; also recorded: Neuroprotectan effect | did not show neuroprotection activity | adverse effects in acute toxicity experiments [3]: did not show any adverse effects; neuroprotection: dopamine level in ipsilateral striatum ([2]; listed as quercetin): did not revert in vivo the oxidative lesion; also recorded: appear not to have neuroprotectant effects in vivo; ischemic lesion area (male Sprague-Dawley rats; liposomal quercetin 30 mg/kg i.p. 30 min after ischemia, TTC at 24 hrs): clearly decreased the lesion area; also recorded: marked and significant decrease of the ischemic area; also recorded: recovery of the ischemic areas is clear cut; number of neurons in Nissl stained slices (male Sprague-Dawley rats; striatum and cortex, 24 hrs after occlusion): higher than ischemic rats and non different from controls; malondialdehyde production during spontaneous lipoperoxidation ([1]; result in words): decreased malondialdehyde production; antioxidant potency / capacity ([1]; result in words): potent antioxidants; IC50 ([1]; spontaneous lipoperoxidation, marcela expressed in quercetin equivalents): 1.11 µg/mL; time quercetin is detected in blood [4]: up to two
